{
  "source": "patent US11111500B2",
  "about": "“Mutated protoporphyrinogen IX oxidase (PPX) genes” (CIBUS US LLC, priority 2010, dated 2021)",
  "key": {"[1]": {"test_system": "potato plastidal PPX", "test": "Tolerance to sulfentrazone of HemG mutant E. coli complemented with potato plastidal PPX (plate selection, colony count)", "type": "cell-based, Solanum tuberosum", "settings": "wild-type potato plastidal PPX clone in hemG mutant E. coli", "description": "StcPPX1, less its chloroplast transit peptide was cloned from cDNA into Cibus' proprietary functional screening vector. This vector may be used both for functional screening, and for GRON QC. The potato PPX genes were used to complement the HemG mutant strain of E. coli, which lacks a functional HemG gene, a bacterial homolog of PPX. Without a complementing gene, the media must be supplemented with hematin for E. coli growth.\nIn order to assess mutations that confer tolerance to PPX inhibitors such as Chateau (flumioxazin-Valent/Sumitomo), Naja (diphenylether—MAI) or Kixor (saflufenacil—BASF). Pure active ingredients for the PPX inhibiting herbicides Chateau (flumioxazin—Valent/Sumitomo), Spartan (sulfentrazone—FMC) and Kixor/Sharpen (saflufenacil—BASF) were obtained. […]\nLiquid culture selection conditions were developed for both sulfentrazone and flumioxazin. […] Spectrophotometric readings (OD600) were taken for each sample (1:4 dilution) and a sample of each plated on LB-Chlor-IPTG plates to determine whether the OD600 correlated with the number of viable colonies. […]\nRandomly mutagenized plasmids (5′ and 3′ ends) were transformed into XL1-Blue E. coli cells. […] Colony counts were compared between the two and mutation tolerance determined based on the percentage of colonies on the 0.75 mM sulfentrazone plates as compared with those on the 0 mM plates. […]"}, "[2]": {"test_system": "leaf disc explants of in vitro grown potato plants", "test": "Leaf disk kill curve (callus formation in leaf disc explants)", "type": "cell-based", "method": "Aimed at establish the concentration of sulfentrazone that will inhibit callus formation in leaf disc explants, leaf discs were punched with a sterile hole punch from 5 weeks old in vitro grown potato plants. The leaf discs were cultured in petri dishes containing solid Haberlach culture medium containing various concentrations of Sulfentrazone in a final concentration of 1% DMSO. Six leaf discs cultured at each herbicide concentration. Plates were sealed with micropore tape and incubated at room temperature (approximately 23° C.). In an initial experiment, 7.8 μM sulfentrazone, the lowest concentration tested in that experiment, was sufficient to stop callus formations and bleach all leaf discs within 20 days. […] Similar leaf disc kill curve experiments were performed using saflufenacil where 0.5 μM of this herbicide was sufficient to inhibit callus formation in almost all leaf discs after 20 days."}},
  "data": [
    {"smiles": "Cc1nn(-c2cc(NS(C)(=O)=O)c(Cl)cc2Cl)c(=O)n1C(F)F", "note": "[sulfentrazone]", "values": [
      {"measurement": "sulfentrazone concentration on which the wildtype construct did not grow", "setting": "[1]", "value": 2.5, "unit": "mM"},
      {"measurement": "concentration sufficient to stop callus formations and bleach all leaf discs within 20 days", "setting": "[2]; initial experiment, lowest concentration tested, 1% DMSO", "value": 7.8, "unit": "µM"},
      {"measurement": "time after which callus initiated on the leaf veins of some leaf discs", "setting": "[2]; leaf discs grown on 2.0 μM", "value": 13, "unit": "days"},
      {"measurement": "concentration sufficient to inhibit callus formation in almost all leaf discs after 20 days", "setting": "[2]; solid Haberlach culture medium, 1% DMSO", "value": 3.0, "unit": "µM"}
    ]}
  ]
}
